Source: US20060069132A1, “Azolecarboxamide herbicides” (priority 2004, published 2006)

Experiments:
[1] = tested on: bermudagrass; assay: Test C pre-/postemergence herbicide test; assay type: in vivo, Cynodon dactylon
Method in brief: (§1)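 Seeds were planted and sprayed preemergence with test chemicals in a non-phytotoxic solvent mixture containing surfactant; postemergence treatments went onto plants 2 to 18 cm tall (1- to 4-leaf stage). After 12 to 14 days in a greenhouse, injury was rated visually against untreated controls on a 0–100 scale.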

[2] = tested on: morningglory; assay: Test A pre-/postemergence herbicide test; assay type: in vivo, Ipomoea spp.
Method in brief: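 Seeds sown in sandy loam received a preemergence directed soil spray of compound in non-phytotoxic solvent with surfactant; postemergence plants (2–10 cm, one- to two-leaf stage) were sprayed to runoff at the same time. After ~10 days in greenhouse, injury was rated visually versus untreated controls (0 = no effect, 100 = complete control).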

[3] = tested on: goosegrass; assay: Test C pre-/postemergence herbicide test; assay type: in vivo, Eleusine indica
Method in brief: as §1

[4] = tested on: smallflower umbrella sedge; assay: Test C flooded paddy test; assay type: in vivo, Cyperus difformis
[5] = tested on: morningglory; assay: Test C pre-/postemergence herbicide test; assay type: in vivo, Ipomoea coccinea; parameters: key to Plant response rating, Morningglory: 0 = no effect, 100 = complete control
Method in brief: as §1

[6] = tested on: common (oilseed) sunflower; assay: Test C pre-/postemergence herbicide test; assay type: in vivo, Helianthus annuus; settings: preemergence
Method in brief: as §1

[7] = tested on: rice; assay: Test B pre-/postemergence herbicide test; assay type: in vivo, Oryza sativa; settings: preemergence
Method in brief: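 Evaluation is visual, comparing treated with control plants on a scale where 0 means no effect and 100 means full control. Treatments were preemergence, or postemergence on seedlings 2–18 cm tall, and held 13–15 days in the greenhouse.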

[8] = tested on: soybean; assay: Test C pre-/postemergence herbicide test; assay type: in vivo, Glycine max
Method in brief: as §1

[9] = tested on: kochia; assay: Test C pre-/postemergence herbicide test; assay type: in vivo, Kochia scoparia
Method in brief: as §1

[10] = tested on: giant foxtail; assay: Test C pre-/postemergence herbicide test; assay type: in vivo, Setaria faberi
Method in brief: as §1

[11] = 125 g ai/ha, scale 0 (no effect) to 100 (complete control), visual, 12 to 14 days, preemergence
[12] = 250 g ai/ha, scale 0 to 100 (0 no effect, 100 complete control), visual, 12 to 14 days, preemergence
[13] = Postemergence, 250 g ai/ha, scale 0 to 100, 0 no effect, 100 complete control
[14] = postemergence, 125 g ai/ha, scale 0 to 100
[15] = postemergence, 62 g ai/ha, scale 0 to 100

## CCn1nc(C(C)(C)C)cc1C(=O)Nc1cccc(C#N)c1 [Compound 139]
[1]; 31 g ai/ha, scale 0 to 100, 0 no effect, 100 complete control, last section of Table C (species set of preemergence test)
  Plant response rating, Bermudagrass: 10
[1]; 62 g ai/ha, preemergence
  Plant response rating (0 = no effect, 100 = complete control), Bermudagrass: 60
[1]; [11]
  Plant response rating, Bermudagrass: 90
[1]; [12]
  Plant response rating, Bermudagrass: 95
[1]; [13]
  Plant response rating, Bermudagrass: 0
[1]; [14]
  Plant response rating, Bermudagrass: 0
[1]; postemergence, 31 g ai/ha, scale 0 to 100
  Plant response rating, Bermudagrass: 0
[1]; [15]
  Plant response rating, Bermudagrass: 0
[2]; Postemergence, 500 g ai/ha, 0 to 100 scale, 0 no effect, 100 complete control
  Morningglory plant response rating: 20
[2]; Postemergence, 2000 g ai/ha, 0 to 100 scale, 0 no effect, 100 complete control
  Plant response rating, Morningglory: 35
[2]; Preemergence, 500 g ai/ha, visual rating, 0 to 100 scale (0 no effect, 100 complete control)
  Morningglory plant response rating: 30
[2]; Preemergence, 2000 g ai/ha, visual rating, 0 to 100 scale (0 no effect, 100 complete control)
  Morningglory plant response rating: 85
[3]; 62 g ai/ha, preemergence
  Plant response rating (0 = no effect, 100 = complete control), Goosegrass: 60
[3]; [11]
  Plant response rating, Goosegrass: 85
[3]; [13]
  Plant response rating, Goosegrass: 5
[3]; [14]
  Plant response rating, Goosegrass: 0
[3]; [15]
  Plant response rating, Goosegrass: 0
[4]; 62 g ai/ha, scale 0 to 100 (0 no effect, 100 complete control)
  Sedge, Umbrella plant response rating: 75
[4]; 125 g ai/ha, scale 0 to 100 (0 no effect, 100 complete control)
  Sedge, Umbrella plant response rating: 80
[4]; 250 g ai/ha, scale of 0 to 100, 0 is no effect, 100 is complete control
  Sedge, Umbrella plant response rating: 85
[4]; 500 g ai/ha, visual rating after 12 to 14 days, scale 0 to 100 (0 no effect, 100 complete control)
  Plant response rating, Sedge, Umbrella: 85
[5]; 62 g ai/ha, preemergence
  Plant response rating (0 = no effect, 100 = complete control), Morningglory: 0
[5]; [11]
  Plant response rating, Morningglory: 10
[5]; [13]
  Plant response rating, Morningglory: 60
[5]; [14]
  Plant response rating, Morningglory: 50
[5]; [15]
  Plant response rating, Morningglory: 0
[6]; 62 g ai/ha
  Plant response rating (0 = no effect, 100 = complete control), Sunflower: 0
[6]; 125 g ai/ha, scale 0 (no effect) to 100 (complete control), visual, 12 to 14 days
  Plant response rating, Sunflower: 10
[7]; 500 g ai/ha, visual rating 0-100, 0 no effect, 100 complete control
  Plant response rating, Rice: 60
[7]; 125 g ai/ha, 0 to 100 scale, 0 is no effect, 100 is complete control
  Plant response rating, Rice: 30
[8]; [11]
  Plant response rating, Soybean: 10
[8]; [13]
  Plant response rating, Soybean: 35
[8]; [14]
  Plant response rating, Soybean: 30
[8]; [15]
  Plant response rating, Soybean: 20
[9]; 62 g ai/ha, preemergence
  Plant response rating (0 = no effect, 100 = complete control), Kochia: 100
[9]; [11]
  Plant response rating, Kochia: 100
[9]; [13]
  Plant response rating, Kochia: 50
[9]; [14]
  Plant response rating, Kochia: 50
[9]; [15]
  Plant response rating, Kochia: 50
[10]; 62 g ai/ha, preemergence
  Plant response rating (0 = no effect, 100 = complete control), Foxtail, Giant: 40
[10]; [11]
  Plant response rating, Foxtail, Giant: 80
[10]; [12]
  Plant response rating, Foxtail, Giant: 95
[10]; [13]
  Plant response rating, Foxtail, Giant: 10
[10]; [14]
  Plant response rating, Foxtail, Giant: 0
[10]; [15]
  Plant response rating, Foxtail, Giant: 0
